Peptide text beside a SMILES is read from it.
Key:
[1] = test system: Human primary fibroblasts isolated from 3 healthy chronologically aged (elder) donors; assay: 3-week exposure: SA-β-galactosidase senescence and proliferation; assay type: cell-based; conditions: 3.12 μM, counted at days 7, 14, 21, 28
Experimental: Human primary fibroblasts isolated from 3 healthy chronologically aged (elder) donors were used. These cells were cultured in DMEM (Dulbecco's Modified Eagle's Medium) supplemented with 10% v.v. fetal bovine serum (FBS), and 1% v.v. of penicillin/streptomycin solution (1,000 U·mL−1). Cells were kept in a 5% CO2, 37° C. and 95% humidity atmosphere. After expansion, these cells were seeded in T-75 flasks (250,000 cells per flask) and, 6 hours after plating, were incubated for 3 weeks (21 days) with Peptide 14 at 3.12 μM. A negative control comprised untreated cells, which received vehicle only. Day 0 was defined as the day cells started to be treated with Peptide 14. No Peptide 14 treatment was performed between days 21 and 28. Weekly, cellular senescence was assessed according to senescence associated β-galactosidase staining levels. Data was normalized to untreated group and plotted (FIG. 4, panel A). Cellular proliferation was also determined weekly. At days 7, 14, 21, and 28, cells were trypsinized and counted (FIG. 4, panel B). After counting, 250,000 cells were plated in new T-75 flasks. Three independent experiments (biological replicates) including three technical replicates were performed. Data was analyzed using T-test. Statistical significance was determined as p values equal or lower than 0.05.

[2] = test system: human primary fibroblasts isolated from 3 healthy donors, UVB exposed; assay: UVB-induced senescence in fibroblasts; assay type: cell-based; conditions: 5 μM, 48 hours after UVB
Experimental: Cellular senescence may be caused by several different stimuli. In order to assess whether Peptide 14 was effective against UVB-induced and chemically-induced senescence, human primary fibroblasts isolated from 3 healthy donors were used. These cells were cultured in DMEM (Dulbecco's Modified Eagle's Medium) supplemented with 10% v.v. fetal bovine serum (FBS), and 1% v.v. of penicillin/streptomycin solution (1,000 U·mL−1). Cells were kept in a 5% CO2, 37° C. and 95% humidity atmosphere. After expansion, these cells were seeded in 96-well plates (4,000 cells per well) and, 6 hours after plating, were submitted to either etoposide (20 μM) treatment for 24 hours, or exposed twice to 0.05 J/cm^2 of UVB radiation. […] After incubation, relative cellular senescence (assessed by the activity of senescence associated β-galactosidase staining relative to untreated control) was analyzed and plotted in column graphs. ATRX foci were also assessed following ATRX immunofluorescence staining. Graphs were built using the average ATRX foci detected per nuclei. […] Data was analyzed using with either t-test or ANOVA followed by a Bonferroni post-hoc test. Statistical significance was determined as p-values equal or lower than 0.05 (FIG. 6).

[3] = test system: Caenorhabditis elegans; assay: C. elegans healthspan and lifespan; assay type: in vivo; conditions: 1 μM and 2 μM, no decrease in worm movement at either time point
Experimental: Senotherapeutic strategies can be linked to healthspan and lifespan extension in vivo. In order to assess whether Peptide 14 promotes extended healthspan and lifespan, Caenorhabditis elegans worms were used. Peptide 14 was added in the worm media (M9 buffer media) at different concentrations of 1 μM or 2 μM. Negative control worms received vehicle only. Two healthspan parameters were assessed i) pharyngeal pumping and ii) worm movement. Lifespan was also determined. For pharyngeal pumping analysis, 15 worms had their pharynx movement (pumping) observed daily and counted for 20 seconds. This experiment was repeated 3 times, by 2 different blind observers, employing different populations of animals at different days. Statistical difference was detected by analyzing each individual time point by One-Way ANOVA and Dunnet's post hoc test. All groups were compared with the H2O group. For worm movement analysis, the basic movement of C. elegans, also called thrashing, was measured daily for 15 worms. […] Statistical difference was detected by analyzing each individual time point by One-Way ANOVA and Dunnet's post hoc, and all groups were compared with the H2O group. […] The average lifespan was measured. Statistical difference was detected by analyzing each individual time point by One-Way ANOVA and Dunnet's post hoc, and all groups were compared with the H2O group (FIG. 18).

CC[C@H](C)[C@H](NC(=O)CNC(=O)[C@H](CCCCN)NC(=O)[C@H](CC(C)C)NC(=O)[C@H](Cc1c[nH]c2ccccc12)NC(=O)[C@H](Cc1c[nH]cn1)NC(=O)[C@H](CCCCN)NC(=O)[C@H](C)NC(=O)[C@@H](NC(=O)[C@@H](N)CCC(=O)O)[C@@H](C)O)C(=O)O [Peptide 14, ETAKHWLKGI] (H-ETAKHWLKGI-OH; N-terminus and C-terminus assumed)
cell proliferation vs untreated control [1]: No significant differences
cell number [2]: did not significantly alter
toxicity to C. elegans (worm movement) [3]: not toxic
